# Results: US9072660B2, “Topical itraconazole formulations and uses thereof” (THE BOARD OF TRUSTEES OF THE LELAND STANFORD JUNIOR …, priority 2011, dated 2015)
# Key:
# [1] = system: BCCs (Smo); settings: cited from earlier work
# [2] = system: BCC tumors; assay: oral itraconazole on endogenous BCC tumors in PTCH1+/- K14-Cre-ER2 p53fl/fl mice; format: in vivo
# [3] = cited from earlier work
# [4] = system: ASZ BCC tumor cell line (GLI1 mRNA); assay: GLI1 mRNA expression in BCC tumor cell line ASZ; format: cell-based, mice; settings: ASZ cells, vs DMSO control
# [5] = cited from earlier work; remark: listed apart in the source
# [6] = system: BCC tumors; assay: oral itraconazole in patients with BCC tumors; format: in vivo, humans; settings: oral 400 mg per day for 1 month
# [7] = system: BSZ BCC tumor cell line (GLI1 mRNA); assay: GLI1 mRNA expression in BCC tumor cell line BSZ; format: cell-based, mice; settings: BSZ cells, vs DMSO control
# [8] = system: Hedgehog signaling pathway (Smo); settings: cited from earlier work
serum concentrations required for oral anti-BCC effect in mouse vs those reached in humans at regular therapeutic doses (400 mg/day orally) ([2]; in vivo mouse studies),Structure (SMILES),inhibition of BCCs ([1]; model systems (in vitro and in vivo)),side effects ([1]; systemic use),"BCC tumor necrosis ([2]; itraconazole 400 mg/day vs cyclodextrin control treated mice, P<0.02, FIG. 2 left)","reduction of BCC tumor size ([2]; oral gavage, 200 mg BID, in 15 days, vs control (cyclodextrin or acetone), P<0.05, FIG. 1) [%]",Half-life ([3]; in vivo) [h],Oral Bio-availability ([3]; with meal) [%],GLI1 mRNA expression ([4]; 0.1 μM),GLI1 mRNA expression ([4]; 1.0 μM),Protein binding [5] [%],change of BCC tumor size on average (95% Confidence Interval: 11% to −62%) [6] [%],GLI1 mRNA expression ([7]; 0.1 μM),GLI1 mRNA expression ([7]; 1.0 μM),ciliary accumulation of Smo normally caused by HH stimulation [8],"inhibition of the HH signaling pathway ([8]; model cell-based assays, by binding to Smo)",expression of the HH target gene GLI1 ([8]; model cell-based assays)
,CC1=C2C[C@H]3[C@@H](CC=C4C[C@@H](O)CC[C@@]43C)[C@@H]2CC[C@]12O[C@@H]1C[C@H](C)CN[C@H]1[C@H]2C [cyclopamine],effectively inhibited,severe side effects,,,,,,,,,,,,,
appreciably higher,"CCC(C)n1ncn(-c2ccc(N3CCN(c4ccc(OC[C@H]5CO[C@](Cn6cncn6)(c6ccc(Cl)cc6Cl)O5)cc4)CC3)cc2)c1=O (relative stereo) [itraconazole, (2R,4S)-rel-1-(butan-2-yl)-4-{4-[4-(4-{[(2R,4S)-2-(2,4-dichlorophenyl)-2-(1H-1,2,4-triazol-1-ylmethyl)-1,3-dioxolan-4-yl]methoxy}phenyl)piperazin-1-yl]phenyl]-4,5-dihydro-1H-1,2,4-triazol-5-one]",,,caused BCC tumor necrosis,50,21,55,reduced,reduced,99.8,−21,reduced,reduced,prevents,potently inhibited,decreased
